Values of other authors, collected in patent US20090123919A1, “Diagnosing Pathological Conditions Using Interallelic Epigenetic Variations” (Allelis Diagnostics Ltd., priority 2005, published 2009).

Tested on: aneuploid genotypes
Details: in the presence of 5-azacytidine, an inhibitor of DNA methylation

Question: For `Nc1ncn([C@@H]2O[C@H](CO)[C@@H](O)[C@H]2O)c(=O)n1` [5-azacytidine], which “loss of the inherent temporal order of allelic replication” value is on record?
Answer: Its value is “can be reversed”.
